Tests used:
[1] = biological target: T1, Alpha-1A adrenergic receptor (Rattus norvegicus, UniProt P43140); test: Binding affinity was tested on CEC-pretreated rat hippocampus Alpha-1A adrenergic receptor; format: tissue-based
T1 sequence (P43140 whole entry): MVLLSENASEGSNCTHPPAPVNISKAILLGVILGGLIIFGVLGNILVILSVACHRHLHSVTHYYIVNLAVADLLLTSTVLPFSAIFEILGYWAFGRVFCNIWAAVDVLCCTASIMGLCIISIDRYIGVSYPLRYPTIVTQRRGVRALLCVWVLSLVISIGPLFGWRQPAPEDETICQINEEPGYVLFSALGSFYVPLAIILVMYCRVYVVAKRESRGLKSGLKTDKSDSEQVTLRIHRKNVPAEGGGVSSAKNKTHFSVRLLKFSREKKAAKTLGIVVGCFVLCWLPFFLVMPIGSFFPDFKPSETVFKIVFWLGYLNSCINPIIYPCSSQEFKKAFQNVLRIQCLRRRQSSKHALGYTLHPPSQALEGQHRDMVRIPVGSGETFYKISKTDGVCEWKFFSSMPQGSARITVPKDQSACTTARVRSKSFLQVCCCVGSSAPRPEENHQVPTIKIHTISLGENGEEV

[2] = biological target: T2, Alpha-1B adrenergic receptor (Rattus norvegicus, UniProt P15823); test: Binding affinity was tested on CEC-pretreated rat liver Alpha-1B adrenergic receptor
T2 sequence (P15823 whole entry): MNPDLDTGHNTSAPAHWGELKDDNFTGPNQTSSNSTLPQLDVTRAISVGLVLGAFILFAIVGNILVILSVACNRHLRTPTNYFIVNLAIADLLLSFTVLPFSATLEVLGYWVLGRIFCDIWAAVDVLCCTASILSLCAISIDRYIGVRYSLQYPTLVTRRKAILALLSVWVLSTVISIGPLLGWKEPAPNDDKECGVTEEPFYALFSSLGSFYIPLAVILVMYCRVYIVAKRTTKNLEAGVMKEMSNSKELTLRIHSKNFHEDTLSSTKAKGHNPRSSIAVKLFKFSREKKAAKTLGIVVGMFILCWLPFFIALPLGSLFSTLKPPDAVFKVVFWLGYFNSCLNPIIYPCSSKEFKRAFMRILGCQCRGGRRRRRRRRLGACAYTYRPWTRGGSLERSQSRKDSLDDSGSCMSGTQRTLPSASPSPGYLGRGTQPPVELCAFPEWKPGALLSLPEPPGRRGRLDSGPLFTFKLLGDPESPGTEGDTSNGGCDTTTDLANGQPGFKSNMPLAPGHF

[3] = In vivo dose (iv) for 50% inhibition of norepinephrine-mediated contraction of proximal urethra (ID50) with the dose (iv) for 25% reduction in systolic blood pressure (ED25) in anesthetized dogs; format: functional
[4] = biological target: T3, Alpha-1D adrenergic receptor (Homo sapiens, UniProt P25100); test: Binding affinity was tested on human Alpha-1D adrenergic receptor
T3 sequence (P25100 whole entry): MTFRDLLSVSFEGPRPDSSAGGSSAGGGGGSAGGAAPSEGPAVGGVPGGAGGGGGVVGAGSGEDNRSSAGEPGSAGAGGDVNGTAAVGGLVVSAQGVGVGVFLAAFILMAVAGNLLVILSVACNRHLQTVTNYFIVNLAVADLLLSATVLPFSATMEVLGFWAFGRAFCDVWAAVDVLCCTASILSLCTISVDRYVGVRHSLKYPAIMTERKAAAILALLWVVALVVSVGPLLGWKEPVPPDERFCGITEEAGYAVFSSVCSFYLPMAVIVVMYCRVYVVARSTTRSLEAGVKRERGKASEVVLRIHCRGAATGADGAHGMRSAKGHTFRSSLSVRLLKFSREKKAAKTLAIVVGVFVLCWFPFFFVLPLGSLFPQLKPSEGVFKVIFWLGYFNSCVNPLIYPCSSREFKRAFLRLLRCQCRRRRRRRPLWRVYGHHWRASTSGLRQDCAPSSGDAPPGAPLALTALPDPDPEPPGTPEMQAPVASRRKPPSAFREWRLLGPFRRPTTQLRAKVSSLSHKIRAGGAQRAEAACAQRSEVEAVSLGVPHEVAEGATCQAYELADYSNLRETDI

[5] = biological target: T4, Adrenergic receptor alpha-1 (Homo sapiens, UniProt P35348+P25100+P35368); test: pA2 for Alpha-1 adrenergic receptor from human prostate.; format: tissue-based, Prostate gland
T4 sequence (P35348 whole entry): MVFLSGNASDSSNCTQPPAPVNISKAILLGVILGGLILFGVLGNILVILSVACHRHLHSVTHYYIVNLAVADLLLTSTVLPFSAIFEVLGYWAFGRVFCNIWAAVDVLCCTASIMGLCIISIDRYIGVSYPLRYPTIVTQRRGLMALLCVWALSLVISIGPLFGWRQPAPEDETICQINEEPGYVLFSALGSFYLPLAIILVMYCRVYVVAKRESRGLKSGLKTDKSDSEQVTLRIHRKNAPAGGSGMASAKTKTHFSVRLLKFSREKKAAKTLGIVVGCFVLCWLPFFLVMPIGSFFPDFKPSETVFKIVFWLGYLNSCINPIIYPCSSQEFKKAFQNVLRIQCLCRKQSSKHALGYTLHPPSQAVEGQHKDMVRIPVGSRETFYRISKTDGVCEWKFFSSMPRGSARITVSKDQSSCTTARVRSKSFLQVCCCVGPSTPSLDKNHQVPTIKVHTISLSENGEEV
T4 sequence (P25100 whole entry): T3 sequence (P25100 whole entry)
T4 sequence (P35368 whole entry): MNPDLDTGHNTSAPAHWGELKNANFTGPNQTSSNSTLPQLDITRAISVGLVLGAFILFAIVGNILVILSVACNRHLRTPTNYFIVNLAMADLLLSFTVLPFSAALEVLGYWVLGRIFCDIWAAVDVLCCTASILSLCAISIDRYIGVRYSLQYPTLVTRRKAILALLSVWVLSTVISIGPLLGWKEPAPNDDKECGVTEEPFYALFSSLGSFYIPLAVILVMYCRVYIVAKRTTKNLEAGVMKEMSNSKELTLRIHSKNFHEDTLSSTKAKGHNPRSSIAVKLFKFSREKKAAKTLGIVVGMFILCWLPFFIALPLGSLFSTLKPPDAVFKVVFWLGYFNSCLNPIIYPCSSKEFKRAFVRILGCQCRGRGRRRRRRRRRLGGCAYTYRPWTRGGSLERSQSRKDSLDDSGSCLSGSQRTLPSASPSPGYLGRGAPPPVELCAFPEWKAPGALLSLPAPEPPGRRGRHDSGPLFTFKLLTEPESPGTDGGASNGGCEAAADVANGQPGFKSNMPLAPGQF

[6] = biological target: T5, Alpha-1A adrenergic receptor (Homo sapiens, UniProt P35348); test: Binding affinity was tested on human Alpha-1A adrenergic receptor
T5 sequence (P35348 whole entry): T4 sequence (P35348 whole entry)

[7] = biological target: T6, Alpha-1B adrenergic receptor (Homo sapiens, UniProt P35368); test: Binding affinity was tested on human Alpha-1B adrenergic receptor
T6 sequence (P35368 whole entry): T4 sequence (P35368 whole entry)

Canis familiaris [8] = test: 50% reduction in agonist induced pressor response in anesthetized dog; format: functional; conditions: Canis lupus familiaris; read-out: ID50 (the source's name)
Canis familiaris [9] = test: 50% reduction in intraurethral pressure (IUP) in response to hypogastric nerve stimulation or agonist (phenylephrine or norepinephrine) administration in anesthetized dog; format: functional; conditions: Canis lupus familiaris; read-out: ID50 (the source's name)
[10] = Ratio of intraurethral pressure to that of pressor response in dog.; format: functional
[11] = Dose (iv) for 20% reduction of mean blood pressure in rat (ID20) with the dose for 50% inhibition of norepinephrine-mediated contraction of proximal urethra (ID50) in cat; format: functional
[12] = biological target: 3 beta-hydroxysteroid dehydrogenase/Delta 5-->4-isomerase type 1 (Homo sapiens, UniProt P14060); test: Binding affinity on 3 beta-hydroxysteroid dehydrogenase
Sequence of 3 beta-hydroxysteroid dehydrogenase/Delta 5-->4-isomerase type 1 (P14060 whole entry): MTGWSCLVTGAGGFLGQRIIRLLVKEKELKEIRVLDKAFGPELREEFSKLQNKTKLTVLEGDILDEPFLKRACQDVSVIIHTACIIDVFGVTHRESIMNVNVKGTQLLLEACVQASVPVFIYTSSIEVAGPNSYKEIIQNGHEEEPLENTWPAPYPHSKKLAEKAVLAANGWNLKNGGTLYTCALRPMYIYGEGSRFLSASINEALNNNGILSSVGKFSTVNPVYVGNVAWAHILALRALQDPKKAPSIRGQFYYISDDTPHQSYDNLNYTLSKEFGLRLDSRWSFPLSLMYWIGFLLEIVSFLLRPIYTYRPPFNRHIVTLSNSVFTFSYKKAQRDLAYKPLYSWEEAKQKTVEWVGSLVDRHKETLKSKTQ

[13] = biological target: T7, 3-oxo-5-alpha-steroid 4-dehydrogenase 2 (Homo sapiens, UniProt P31213); test: Binding affinity for human 5-alpha reductase 2 isozyme
T7 sequence (P31213 whole entry): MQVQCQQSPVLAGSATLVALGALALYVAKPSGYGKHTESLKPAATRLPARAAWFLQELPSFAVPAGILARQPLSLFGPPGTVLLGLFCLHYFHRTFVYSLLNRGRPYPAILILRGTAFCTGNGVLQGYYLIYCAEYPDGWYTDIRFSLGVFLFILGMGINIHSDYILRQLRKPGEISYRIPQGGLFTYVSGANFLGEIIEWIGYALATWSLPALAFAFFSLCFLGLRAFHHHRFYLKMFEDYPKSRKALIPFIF

[14] = biological target: T8, 3-oxo-5-alpha-steroid 4-dehydrogenase 1 (Homo sapiens, UniProt P18405); test: Binding affinity for human 5 alpha reductase 1 isozyme
T8 sequence (P18405 whole entry): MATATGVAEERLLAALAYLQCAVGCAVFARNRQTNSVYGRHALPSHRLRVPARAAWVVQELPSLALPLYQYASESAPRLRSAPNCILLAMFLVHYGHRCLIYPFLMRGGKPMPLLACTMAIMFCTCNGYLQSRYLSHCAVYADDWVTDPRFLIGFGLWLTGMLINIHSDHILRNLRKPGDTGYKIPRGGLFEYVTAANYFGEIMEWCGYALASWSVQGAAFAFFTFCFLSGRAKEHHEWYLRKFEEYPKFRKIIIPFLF

[15] = biological target: T7, 3-oxo-5-alpha-steroid 4-dehydrogenase 2; test: Inhibitory concentration on human 5-alpha reductase 2 (transfected SW-13 cells)
[16] = biological target: T8, 3-oxo-5-alpha-steroid 4-dehydrogenase 1; test: Inhibitory concentration on human 5-alpha reductase 1 isozyme

**Q.** For COc1ccccc1N1CCN(CCCCOc2cccc3c(=O)c(C)c(-c4ccccc4)oc23)CC1, which IC50 [1] is on record?
**A.** 10 nM

**Q.** And the IC50 [2]?
**A.** 39 nM

**Q.** What about the Ratio [3] of the same molecule?
**A.** 13

**Q.** For COc1ccc(Cl)cc1N1CCN(CCCNc2nccc(C(N)=O)n2)CC1, which Ki [4] is on record?
**A.** 2.51 nM

**Q.** And the pA2 [5]?
**A.** 8.6

**Q.** And the Ki [6]?
**A.** 2.51 nM

**Q.** What about the Ki [7] of the same molecule?
**A.** 12.6 nM

**Q.** And the ED50 (Canis familiaris [8])?
**A.** 0.021 mg/kg

**Q.** And the ED50 (Canis familiaris [9])?
**A.** 0.005 mg/kg

**Q.** What about the Ratio [10] of the same molecule?
**A.** 5

**Q.** What about the Ratio [11] of the same molecule?
**A.** 46

**Q.** With CC(C)(C)CC(C)(C)NC(=O)[C@H]1CCC2C3CNC4=CC(=O)CC[C@]4(C)C3CC[C@@]21C (some centres undefined) as the molecule, how does the IC50 [12] read?
**A.** 150 nM

**Q.** With CC1=C2NCC3C(CC[C@@]4(C)C3CC[C@@H]4C(=O)Nc3cc(C(F)(F)F)ccc3C(F)(F)F)[C@@]2(C)CCC1=O (some centres undefined) as the molecule, how does the IC50 [13] read?
**A.** < 0.1 nM

**Q.** And the Ki [14]?
**A.** 0.2 nM

**Q.** With CC(C)(C)NC(=O)[C@H]1CCC2C3CCC4=C(C#N)C(=O)CC[C@]4(C)C3CC[C@@]21C (some centres undefined) as the molecule, how does the IC50 [15] read?
**A.** 2.9 nM

**Q.** For O=C(O)c1cc2cc(OCc3ccccc3)ccc2[nH]1, which Ki [16] is on record?
**A.** > 2500 nM

**Q.** Which Ratio [3] does the source give for COc1ccccc1N1CCN(CCCNC(=O)c2ccccc2OCc2ccccc2)CC1 here?
**A.** 16

**Q.** With CC(C)(C)CCNC(=O)[C@H]1CCC2C3CNC4=CC(=O)CC[C@]4(C)C3CC[C@@]21C (some centres undefined) as the molecule, how does the IC50 [12] read?
**A.** 8.3 nM

**Q.** Which Ratio [11] does the source give for COc1ccccc1N1CCN(CCCNc2nccc(C(N)=O)n2)CC1 here?
**A.** 31
